Experimental data published in patent US20240417393A1, “CERTAIN 2,5-DIAZABICYCLO[4.2.0]OCTANES AS GLP-1 RECEPTOR MODULATORS” (ASTRAZENECA AB, priority 2021, published 2024).

Columns and labels:
[1] = target: T1, human phosphodiesterase-3A (Homo sapiens, UniProt Q14432); assay: PDE3 Assay ([3H]cAMP to 5'AMP, SPA); format: biochemical; settings: human recombinant PDE3A expressed in Sf9 cells; 450 nM cAMP; 20 min at 22° C.
T1 construct: host or cells: Sf9 (Spodoptera frugiperda) cells
Method: Evaluation of the effects of compounds on the activity of the human phosphodiesterase-3A is quantified by measuring the formation of 5′AMP from cAMP using a human recombinant is enzyme expressed in a clonal isolate of Spodoptera frugiperda cells (Sf9) cells.
The test compound, reference compound or water (control) are added to a buffer containing 40 mM tris(hydroxymethyl)aminomethane (Tris)/HCl (pH 7.4) and 8 mM MgCl2, 450 nMcAMP and 0.25 μCi [^3H]cAMP.
Thereafter, the reaction is initiated by addition of the enzyme (about 1U) and the mixture is incubated for 20 min at 22° C.
For basal control measurements, the enzyme is omitted from the reaction mixture.
Following incubation SPA beads are added. After 30 min at 22° C. under shaking, the amount of [^3H]5′AMP is quantified with a scintillation counter (Topcount, Packard).
The results are expressed as a percent inhibition of the control enzyme activity. The standard inhibitory reference compound is milrinone (CAS number 78415-72-2), which is tested in each experiment at several concentrations to obtain an inhibition curve from which its IC50 value is calculated.

[2] = target: T2, human GLP-1R receptor (Homo sapiens, UniProt P43220, L260F); assay: CHOK1 GLP-1R cAMP Assay (HTRF); format: cell-based; settings: CHO-K1 cells stably expressing human GLP-1R (Leu260Phe variant), 20 min at rt
T2 construct: expressed in transfected cells; host or cells: CHO-K1 (ATCC CCL-61)
T2 sequence (P43220 24-463 L260F): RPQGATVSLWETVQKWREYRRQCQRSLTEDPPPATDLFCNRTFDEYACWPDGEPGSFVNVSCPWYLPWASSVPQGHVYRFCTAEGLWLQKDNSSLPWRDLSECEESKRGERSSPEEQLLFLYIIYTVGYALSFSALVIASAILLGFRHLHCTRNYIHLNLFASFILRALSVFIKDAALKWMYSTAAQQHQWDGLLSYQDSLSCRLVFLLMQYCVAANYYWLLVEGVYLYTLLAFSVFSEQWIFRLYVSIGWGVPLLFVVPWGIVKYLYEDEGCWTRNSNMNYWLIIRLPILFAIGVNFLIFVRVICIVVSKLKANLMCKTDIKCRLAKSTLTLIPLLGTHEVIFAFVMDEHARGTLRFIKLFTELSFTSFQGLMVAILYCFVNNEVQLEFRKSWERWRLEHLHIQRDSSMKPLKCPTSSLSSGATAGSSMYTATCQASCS

[3] = target: T3, GLP-1R in a pancreatic insulinoma cell line (EndoC-PH1) (Homo sapiens, UniProt P43220); assay: EndoC cAMP Accumulation Assay (HTRF); format: cell-based; settings: EndoC-PH1 human pancreatic beta cell line, endogenous GLP-1R, 30 min at rt
T3 construct: host or cells: EndoC-βH1 human pancreatic beta cell line
T3 sequence (P43220 24-463): as the sequence (P43220 24-463 L260F) above, with F237L counted along it
Outline: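 Thawed human EndoC-βH1 cells, about 3000 per well, stimulated with compound 30 min at room temperature in HBSS/HEPES pH 7.4 with 0.1% BSA and 0.5 mM IBMX; cAMP by competitive HTRF. Responses as % activation relative to maximal GIP (82.5 nM), 4-parameter logistic fit.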

T1 sequence (Q14432 whole entry): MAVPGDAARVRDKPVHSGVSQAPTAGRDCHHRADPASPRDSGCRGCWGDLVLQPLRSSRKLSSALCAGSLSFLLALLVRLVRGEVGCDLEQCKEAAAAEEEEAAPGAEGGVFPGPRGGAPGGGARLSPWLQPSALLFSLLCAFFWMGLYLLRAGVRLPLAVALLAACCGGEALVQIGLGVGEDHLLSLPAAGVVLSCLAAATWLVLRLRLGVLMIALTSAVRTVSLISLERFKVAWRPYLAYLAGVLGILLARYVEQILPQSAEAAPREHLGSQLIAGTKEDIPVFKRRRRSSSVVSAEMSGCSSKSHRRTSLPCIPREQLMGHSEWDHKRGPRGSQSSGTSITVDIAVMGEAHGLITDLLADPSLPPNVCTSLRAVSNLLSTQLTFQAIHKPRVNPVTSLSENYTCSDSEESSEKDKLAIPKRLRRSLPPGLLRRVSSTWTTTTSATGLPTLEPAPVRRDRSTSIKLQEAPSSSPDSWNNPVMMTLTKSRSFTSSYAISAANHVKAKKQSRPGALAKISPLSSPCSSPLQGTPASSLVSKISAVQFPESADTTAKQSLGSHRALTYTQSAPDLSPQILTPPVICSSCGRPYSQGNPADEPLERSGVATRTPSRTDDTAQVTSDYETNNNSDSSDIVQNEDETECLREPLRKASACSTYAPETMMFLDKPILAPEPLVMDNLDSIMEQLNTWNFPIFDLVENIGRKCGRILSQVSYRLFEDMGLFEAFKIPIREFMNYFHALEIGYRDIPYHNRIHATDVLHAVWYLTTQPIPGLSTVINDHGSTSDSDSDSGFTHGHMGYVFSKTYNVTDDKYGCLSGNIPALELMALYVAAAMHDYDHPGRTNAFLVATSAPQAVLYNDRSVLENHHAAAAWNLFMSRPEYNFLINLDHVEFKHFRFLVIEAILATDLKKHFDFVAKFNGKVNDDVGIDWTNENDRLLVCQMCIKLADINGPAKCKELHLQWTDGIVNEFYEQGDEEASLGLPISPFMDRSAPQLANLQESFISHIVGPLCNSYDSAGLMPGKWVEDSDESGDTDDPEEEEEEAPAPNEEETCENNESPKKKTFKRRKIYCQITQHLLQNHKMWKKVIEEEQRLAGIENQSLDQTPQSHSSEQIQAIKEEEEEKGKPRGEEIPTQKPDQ

Row | Compound | IC50 [1] [µM] | EC50 [2] [nM] | EC50 [3] [nM]
1 | C[C@]1(c2ccc(Cl)cc2F)Oc2cccc(N3CCN(Cc4nc5c(F)cc(C(=O)O)cc5n4C[C@@H]4CCO4)[C@H]4CC[C@H]43)c2O1 (single isomer, unassigned) [Example 9b] | > 100 | 0.8 | 3.3
2 | COc1cc(C(=O)O)cc2c1nc(CN1CCN(c3cccc4c3O[C@@](C)(c3ccc(Cl)cn3)O4)[C@@H]3CC[C@@H]31)n2C[C@@H]1CCO1 (single isomer, unassigned) [Example 2a, 2-((1R*,6S*)-5-(R*)-2-(5-Chloropyridin-2-yl)-2-methylbenzo[d][1,3]dioxol-4-yl)-2,5-diazabicyclo[4.2.0]octan-2-yl)methyl)-4-methoxy-1-(((S)-oxetan-2-yl)methyl)-1H-benzo[d]imidazole-6-carboxylic acid] | > 100 | – | –
3 | CCn1ccnc1Cn1c(CN2CCN(c3cccc4c3O[C@@](C)(c3ccc(Cl)cn3)O4)[C@H]3CC[C@@H]32)nc2c(Cl)cc(C(=O)O)cc21 (single isomer, unassigned) [Example 10a] | > 100 | 0.9 | 3.5
4 | C[C@]1(c2ccc(Cl)cn2)Oc2cccc(N3CCN(Cc4nc5ccc(C(=O)O)cc5n4C[C@@H]4CCO4)[C@H]4CC[C@H]43)c2O1 (single isomer, unassigned) [Example 5a, 2-((1R*,6S*)-5-(R*)-2-(5-Chloropyridin-2-yl)-2-methylbenzo[d][1,3]dioxol-4-yl)-2,5-diazabicyclo[4.2.0]octan-2-yl)methyl)-1-(((S)-oxetan-2-yl)methyl)-1H-benzo[d]imidazole-6-carboxylic acid] | > 100 | 1.9 | 6.5
5 | C[C@]1(c2ccc(Cl)cc2F)Oc2cccc(N3CCN(Cc4nc5ccc(C(=O)O)cc5n4C[C@@H]4CCO4)[C@H]4CC[C@@H]43)c2O1 (single isomer, unassigned) [Example 21a, 2-(((1R*,6R*)-5-((R*)-2-(4-Chloro-2-fluorophenyl)-2-methylbenzo[d][1,3]dioxol-4-yl)-2,5-diazabicyclo[4.2.0]octan-2-yl)methyl)-1-(((S)-oxetan-2-yl)methyl)-1H-benzo[d]imidazole-6-carboxylic acid] | – | 7 | 7.3
6 | C[C@]1(c2ccc(Cl)cn2)Oc2cccc(N3CCN(Cc4nc5c(F)cc(C(=O)O)cc5n4C[C@@H]4CCO4)[C@H]4CC[C@H]43)c2O1 (single isomer, unassigned) [Example 1c, 2-((1R*,6S*)-5-(R*)-2-(5-Chloropyridin-2-yl)-2-methylbenzo[d][1,3]dioxol-4-yl)-2,5-diazabicyclo[4.2.0]octan-2-yl)methyl)-4-fluoro-1-(((S)-oxetan-2-yl)methyl)-1H-benzo[d]imidazole-6-carboxylic acid] | > 100 | 2.2 | 3.2
7 | C[C@]1(c2ccc(Cl)cn2)Oc2cccc(N3CCN(Cc4nc5c(Cl)cc(C(=O)O)cc5n4CC4(CC#N)CC4)[C@H]4CC[C@@H]43)c2O1 (single isomer, unassigned) [Example 26b] | – | 1.5 | 2
8 | CCn1ccnc1Cn1c(CN2CCN(c3cccc4c3O[C@@](C)(c3ccc(Cl)cn3)O4)[C@H]3CC[C@@H]32)nc2c(Cl)cc(C(=O)O)cc21 (single isomer, unassigned) [Example 10b] | – | 19 | 76

The remaining lines, values ahead:

Row | IC50 [1] [µM] | EC50 [2] [nM] | EC50 [3] [nM] | Compound
9 | > 100 | – | – | COc1cc(C(=O)O)cc2c1nc(CN1CCN(c3cccc4c3O[C@@](C)(c3ccc(Cl)cn3)O4)[C@@H]3CC[C@@H]31)n2C[C@@H]1CCO1 (single isomer, unassigned) [Example 2d, 2-((1R*,6S*)-5-(R*)-2-(5-Chloropyridin-2-yl)-2-methylbenzo[d][1,3]dioxol-4-yl)-2,5-diazabicyclo[4.2.0]octan-2-yl)methyl)-4-methoxy-1-(((S)-oxetan-2-yl)methyl)-1H-benzo[d]imidazole-6-carboxylic acid]
10 | > 100 | 11 | 8.8 | C[C@]1(c2ccc(Cl)cn2)Oc2cccc(N3CCN(Cc4nc5c(Cl)cc(C(=O)O)cc5n4C[C@@H]4CCO4)[C@H]4CC[C@@H]43)c2O1 (single isomer, unassigned) [Example 3c, 4-Chloro-2-(((1R*,6R*)-5-((R*)-2-(5-chloropyridin-2-yl)-2-methylbenzo[d][1,3]dioxol-4-yl)-2,5-diazabicyclo[4.2.0]octan-2-yl)methyl)-1-(((S)-oxetan-2-yl)methyl)-1H-benzo[d]imidazole-6-carboxylic acid]
11 | > 100 | 0.9 | 2.6 | C[C@]1(c2ccc(Cl)cn2)Oc2cccc(N3CCN(Cc4nc5c(Cl)cc(C(=O)O)cc5n4C[C@@H]4CCO4)[C@@H]4CC[C@H]43)c2O1 (single isomer, unassigned) [Example 3b]
12 | > 100 | – | – | COc1cc(C(=O)O)cc2c1nc(CN1CCN(c3cccc4c3O[C@@](C)(c3ccc(Cl)cn3)O4)[C@H]3CC[C@@H]31)n2C[C@@H]1CCO1 (single isomer, unassigned) [Example 6a, 2-(((1R*,6R*)-5-((R*)-2-(5-Chloropyridin-2-yl)-2-methylbenzo[d][1,3]dioxol-4-yl)-2,5-diazabicyclo[4.2.0]octan-2-yl)methyl)-4-methoxy-1-(((S)-oxetan-2-yl)methyl)-1H-benzo[d]imidazole-6-carboxylic acid]
13 | > 100 | 2.5 | 6.1 | COc1cc(C(=O)O)cc2c1nc(CN1CCN(c3cccc4c3O[C@@](C)(c3ccc(Cl)cn3)O4)[C@H]3CC[C@@H]31)n2C[C@@H]1CCCO1 (single isomer, unassigned) [Example 7b, 2-(((1R*,6R*)-5-((R*)-2-(5-Chloropyridin-2-yl)-2-methylbenzo[d][1,3]dioxol-4-yl)-2,5-diazabicyclo[4.2.0]octan-2-yl)methyl)-4-methoxy-1-(((S)-tetrahydrofuran-2-yl)methyl)-1H-benzo[d]imidazole-6-carboxylic acid]
14 | > 100 | 1.6 | 2.6 | COc1cc(C(=O)O)cc2c1nc(CN1CCN(c3cccc4c3O[C@@](C)(c3ccc(Cl)cn3)O4)[C@@H]3CC[C@@H]31)n2C[C@@H]1CCCO1 (single isomer, unassigned) [Example 8c]
15 | > 87 | 1.2 | 2.9 | C[C@]1(c2ccc(Cl)cn2)Oc2cccc(N3CCN(Cc4nc5c(F)cc(C(=O)O)cc5n4C[C@@H]4CCO4)[C@H]4CC[C@H]43)c2O1 (single isomer, unassigned) [Example 1b, 2-(((1R*,6S*)-5-((R*)-2-(5-Chloropyridin-2-yl)-2-methylbenzo[d][1,3]dioxol-4-yl)-2,5-diazabicyclo[4.2.0]octan-2-yl)methyl)-4-fluoro-1-(((S)-oxetan-2-yl)methyl)-1H-benzo[d]imidazole-6-carboxylic acid]
